Three compounds from US20250073169A1, “POLYMER NANOPARTICLES VIA CONDENSED DROPLET POLYMERIZATION” (CORNELL UNIVERSITY, priority 2021, published 2025) can be followed below.

The nature of the data set: Static contact angle of liquid monomer on coated substrate (goniometer). Format: physicochemical. The protocol:
Contact angle and aspect ratio analysis: Contact angle measurements were performed using a Ramé-Hart Model 500 contact angle goniometer. A pipette was used to dispense 5 μL of liquid HEMA, 4VP, and DVB onto the substrate for static contact angle measurements.

Where [1] appears, read: 5 μL liquid monomer on flattened PPFDA base layer, n=5.

`C=Cc1ccncc1` [4VP, 4-vinylpyridine] returned a contact angle under setting [1] of 80.6±1.7 °.
For the compound `C=C(C)C(=O)OCCO` [HEMA, 2-hydroxyethyl methacrylate], the contact angle is 18.5±1.1 ° (5 μL liquid monomer on PDVB thin film coated substrate, n=4) and 86.4±1.0 ° under setting [1].
As for divinylbenzene [DVB], under setting [1], the contact angle turned out to be 86.5±1.6 °.
